Test results as given in ChEMBL document CHEMBL5506055, “Hit-to-Lead Optimization of the Natural Product Oridonin as Novel NLRP3 Inflammasome Inhibitors with Potent Anti-Inflammation Activity” (J Med Chem, 2024).
Active and inactive are the calls of the source. The rule behind the calls is not given here.

What was measured:
[1] = molecular target: NACHT, LRR and PYD domains-containing protein 3 (Mus musculus) (UniProt Q8R4B8); experiment: Inhibition of NLRP3 inflammasome activation in LPS-induced C57BL/6 mouse BMDMs assessed as reduction in IL-1beta level preincubated with Pam3CSK4 for 3 hrs followed by compound addition for 30 mins and further LPS transfected with Lipo-3000 for 16 hrs by ELISA; format: cell-based; details: BMDM, dose 50-200 nM, time 16.5 hrs
Chain of NACHT, LRR and PYD domains-containing protein 3 (Mus musculus) (Q8R4B8 whole entry, the tested form may be a part): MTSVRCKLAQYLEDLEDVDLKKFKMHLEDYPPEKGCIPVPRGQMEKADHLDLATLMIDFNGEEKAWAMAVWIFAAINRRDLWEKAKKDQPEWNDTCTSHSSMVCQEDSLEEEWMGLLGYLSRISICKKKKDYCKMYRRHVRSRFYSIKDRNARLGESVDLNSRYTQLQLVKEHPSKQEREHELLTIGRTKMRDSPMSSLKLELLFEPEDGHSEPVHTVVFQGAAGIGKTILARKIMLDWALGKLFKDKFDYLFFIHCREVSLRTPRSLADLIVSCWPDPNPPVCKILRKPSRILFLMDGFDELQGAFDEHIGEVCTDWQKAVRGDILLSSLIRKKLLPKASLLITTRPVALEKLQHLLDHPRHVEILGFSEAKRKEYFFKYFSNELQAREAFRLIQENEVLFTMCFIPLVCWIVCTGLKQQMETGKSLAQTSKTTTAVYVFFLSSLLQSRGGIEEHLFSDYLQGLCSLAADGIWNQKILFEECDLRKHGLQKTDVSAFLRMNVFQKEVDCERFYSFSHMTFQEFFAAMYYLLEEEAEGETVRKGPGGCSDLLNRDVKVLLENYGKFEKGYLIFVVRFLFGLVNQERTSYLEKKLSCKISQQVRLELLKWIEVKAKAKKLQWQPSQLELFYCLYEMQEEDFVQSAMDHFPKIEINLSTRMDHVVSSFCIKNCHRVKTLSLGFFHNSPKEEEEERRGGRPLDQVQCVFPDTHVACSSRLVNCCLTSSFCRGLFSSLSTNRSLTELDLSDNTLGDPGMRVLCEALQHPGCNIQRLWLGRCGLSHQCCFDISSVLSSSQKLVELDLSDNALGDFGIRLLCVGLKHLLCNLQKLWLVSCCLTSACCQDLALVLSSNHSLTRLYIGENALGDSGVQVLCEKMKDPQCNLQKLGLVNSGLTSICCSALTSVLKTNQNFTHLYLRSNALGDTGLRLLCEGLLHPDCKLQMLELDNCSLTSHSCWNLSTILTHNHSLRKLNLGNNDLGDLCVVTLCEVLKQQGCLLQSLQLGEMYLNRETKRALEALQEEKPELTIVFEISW

[2] = molecular target: NACHT, LRR and PYD domains-containing protein 3 (Mus musculus) (UniProt Q8R4B8); experiment: Inhibition of NLRP3 inflammasome activation in LPS/ATP-induced C57BL/6 mouse BMDMs assessed as reduction in IL-1beta secretion at 500 nM preincubated with LPS for 4 hrs followed by compound addition for 30 mins and further stimulated with ATP for 30 mins by ELISA relative to control; format: cell-based; details: BMDM, time 1.0 hrs
[3] = Stability in rat plasma assessed as half life measured upto 8 hrs; format: ADME, cell-free
[4] = molecular target: NACHT, LRR and PYD domains-containing protein 3 (Mus musculus) (UniProt Q8R4B8); experiment: Inhibition of NLRP3 inflammasome activation in LPS/ATP-induced C57BL/6 mouse BMDMs assessed as reduction in IL-1beta secretion at 200 nM preincubated with LPS for 4 hrs followed by compound addition for 30 mins and further stimulated with ATP for 30 mins by ELISA relative to control; format: cell-based; details: BMDM, time 1.0 hrs
[5] = molecular target: NACHT, LRR and PYD domains-containing protein 3 (Mus musculus) (UniProt Q8R4B8); experiment: Inhibition of NLRP3 inflammasome activation in LPS/ATP-induced C57BL/6 mouse BMDMs assessed as reduction in TNFalpha production at 50 to 200 nM preincubated with compound prior to LPS addition for 30 mins and further stimulated with ATP for 30 mins by Western blotting analysis; format: cell-based; details: BMDM, dose 50-200 nM, time 60.0 min
[6] = molecular target: NACHT, LRR and PYD domains-containing protein 3 (Mus musculus) (UniProt Q8R4B8); experiment: (§1) Inhibition of NLRP3 inflammasome activation in LPS/ATP-induced C57BL/6 mouse BMDMs assessed as inhibition of ASC oligomerization by measuring reduction in pro-caspase-1 expression at 50 to 200 nM preincubated with LPS for 4 hrs followed by compound addition for 30 mins and further stimulated with ATP for 30 mins by Western blotting analysis; format: cell-based; details: BMDM, dose 50-200 nM, time 1.0 hrs
[7] = molecular target: NACHT, LRR and PYD domains-containing protein 3 (Mus musculus) (UniProt Q8R4B8); experiment: Inhibition of NLRP3 inflammasome activation in LPS-induced C57BL/6 mouse BMDMs assessed as reduction in NLRP3 mRNA level at 50 to 200 nM preincubated for 24 hrs followed by LPS addition for 4 hrs by qRT-PCR analysis; format: cell-based; details: BMDM, dose 50-200 nM, time 28.0 hrs
[8] = molecular target: NACHT, LRR and PYD domains-containing protein 3 (Mus musculus) (UniProt Q8R4B8); experiment: as §1, with “ASC” for “pro-caspase-1”; format: cell-based; details: BMDM, dose 50-200 nM, time 1.0 hrs
[9] = molecular target: NACHT, LRR and PYD domains-containing protein 3 (Mus musculus) (UniProt Q8R4B8); experiment: Binding affinity to NLRP3 in mouse BMDMs at 100 uM incubated for 30 mins by CETSA; format: cell-based; details: BMDM
[10] = molecular target: NACHT, LRR and PYD domains-containing protein 3 (Mus musculus) (UniProt Q8R4B8); experiment: Inhibition of NLRP3 inflammasome activation in LPS/ATP-induced C57BL/6 mouse BMDMs assessed as reduction in NLRP3 expression preincubated with compound prior to LPS addition for 30 mins and further stimulated with ATP for 30 mins by Western blotting analysis; format: cell-based; details: BMDM, dose 50-200 nM, time 60.0 min
[11] = Stability in mouse liver microsomes assessed as half life preincubated for 5 mins with NADPH followed by compound addition and measured upto 120 mins by LC-MS/MS analysis; format: ADME, Microsome; details: time < 125 min
[12] = AUC in ICR mouse at 10 mg/kg, po measured upto 24 hrs by LC-MS/MS method; format: ADME, organism-based; details: in vivo, po, 10 mg/kg, 24 h
[13] = molecular target: NACHT, LRR and PYD domains-containing protein 3 (Mus musculus) (UniProt Q8R4B8); experiment: Inhibition of NLRP3 inflammasome activation in LPS/alum-induced C57BL/6 mouse BMDMs at 200 nM preincubated with LPS for 18 hrs followed by compound addition for 30 mins and further stimulated with alum for 8 hrs by ELISA; format: cell-based; details: BMDM, time 8.5 hrs
[14] = molecular target: NACHT, LRR and PYD domains-containing protein 3 (Mus musculus) (UniProt Q8R4B8); experiment: Inhibition of NLRP3 inflammasome activation in LPS/ATP-induced C57BL/6 mouse BMDMs assessed as reduction in IL-1beta secretion at 50 to 200 nM preincubated with LPS for 4 hrs followed by compound addition for 30 mins and further stimulated with ATP for 30 mins by Western blotting analysis relative to oridonin; format: cell-based; details: BMDM, dose 50-200 nM, time 1.0 hrs
[15] = test system: Mus musculus; experiment: Antiinflammatory activity in C57BL/6 mouse model of arthritis assessed as reduction in MSU-induced joint swelling at 12.5 to 25 mg/kg, iv measured upto 24 hrs; format: functional, organism-based; details: dose 12.5-25 mg/kg
[16] = molecular target: NACHT, LRR and PYD domains-containing protein 3 (Mus musculus) (UniProt Q8R4B8); experiment: Inhibition of NLRP3 inflammasome activation in LPS-induced C57BL/6 mouse BMDMs assessed as reduction in pro-IL-1beta mRNA level at 50 to 200 nM preincubated for 24 hrs followed by LPS addition for 4 hrs by qRT-PCR analysis; format: cell-based; details: BMDM, dose 50-200 nM, time 28.0 hrs
[17] = molecular target: NACHT, LRR and PYD domains-containing protein 3 (Mus musculus) (UniProt Q8R4B8); experiment: Inhibition of NLRP3 inflammasome activation in LPS/ATP-induced C57BL/6 mouse BMDMs assessed as reduction in maturation of pro-caspase-1 preincubated with LPS for 4 hrs followed by compound addition for 30 mins and further stimulated with ATP for 30 mins by ELISA; format: cell-based; details: BMDM, time 1.0 hrs
[18] = molecular target: NACHT, LRR and PYD domains-containing protein 3 (Mus musculus) (UniProt Q8R4B8); experiment: Inhibition of NLRP3 inflammasome activation in LPS/ATP-induced C57BL/6 mouse BMDMs assessed as reduction in pro-IL-1beta production at 50 to 200 nM preincubated with compound prior to LPS addition for 30 mins and further stimulated with ATP for 30 mins by Western blotting analysis; format: cell-based; details: BMDM, dose 50-200 nM, time 60.0 min
[19] = test system: Mus musculus; experiment: Antiinflammatory activity in C57BL/6 mouse model of arthritis assessed as reduction in MSU-induced NLRP3 expression in joints at 12.5 to 25 mg/kg, iv measured upto 24 hrs; format: functional, organism-based; details: dose 12.5-25 mg/kg
[20] = molecular target: NACHT, LRR and PYD domains-containing protein 3 (Mus musculus) (UniProt Q8R4B8); experiment: Inhibition of NLRP3 inflammasome activation in LPS/ATP-induced C57BL/6 mouse BMDMs assessed as reduction in IL-1beta secretion at 100 nM preincubated with LPS for 4 hrs followed by compound addition for 30 mins and further stimulated with ATP for 30 mins by ELISA relative to control; format: cell-based; details: BMDM, time 1.0 hrs
[21] = molecular target: NACHT, LRR and PYD domains-containing protein 3 (Mus musculus) (UniProt Q8R4B8); experiment: as §1, with “pro-IL-1beta” for “pro-caspase-1”; format: cell-based; details: BMDM, dose 50-200 nM, time 1.0 hrs
[22] = molecular target: NACHT, LRR and PYD domains-containing protein 3 (Mus musculus) (UniProt Q8R4B8); experiment: Inhibition of NLRP3 inflammasome activation in LPS-induced C57BL/6 mouse BMDMs assessed as effect on phosphorylated p65 expression at 50 to 200 nM preincubated for 24 hrs followed by LPS addition for 4 hrs by Western blotting analysis; format: cell-based; details: BMDM, dose 50-200 nM, time 28.0 hrs
[23] = molecular target: NACHT, LRR and PYD domains-containing protein 3 (Mus musculus) (UniProt Q8R4B8); experiment: as §1, with “IL-1beta secretion” for “pro-caspase-1 expression”; format: cell-based; details: BMDM, dose 50-200 nM, time 1.0 hrs
[24] = molecular target: NACHT, LRR and PYD domains-containing protein 3 (Mus musculus) (UniProt Q8R4B8); experiment: Inhibition of NLRP3 inflammasome activation in LPS/MSU-induced C57BL/6 mouse BMDMs at 200 nM preincubated with LPS for 4 hrs followed by compound addition for 30 mins and further stimulated with MSU for 6 hrs by ELISA; format: cell-based; details: BMDM, time 6.5 hrs
[25] = Cmax in ICR mouse at 10 mg/kg, po measured upto 24 hrs by LC-MS/MS method; format: ADME, organism-based; details: in vivo
[26] = molecular target: NACHT, LRR and PYD domains-containing protein 3 (Mus musculus) (UniProt Q8R4B8); experiment: Binding affinity to NLRP3 in mouse BMDMs at 10^-2 to 10^3 uM incubated for 10 to 90 mins by ITDRF; format: cell-based; details: BMDM, dose 0.01-1000 µM, time 10-90 min
[27] = molecular target: NACHT, LRR and PYD domains-containing protein 3 (Mus musculus) (UniProt Q8R4B8); experiment: Inhibition of NLRP3 inflammasome activation in LPS/nigericin-induced C57BL/6 mouse BMDMs at 200 nM preincubated with LPS for 4 hrs followed by compound addition for 30 mins and further stimulated with nigericin for 30 mins by ELISA; format: cell-based; details: BMDM, time 1.0 hrs

Q: For `C=C1C(=O)[C@]23[C@H](O)[C@H]1CC[C@H]2[C@]12C=CCC(C)(C)[C@H]1[C@H](O)[C@@]3(OCCC(=O)O)OC2`, which inhibition [1] is on record?
A: Dose-Dependent Effect

Q: And the inhibition [2]?
A: 95.3%

Q: And the half-life [3]?
A: 6.21 h

Q: What about the inhibition [4] of the same molecule?
A: 87.5%

Q: What about the inhibition [5] of the same molecule?
A: inactive

Q: What about the inhibition [6] of the same molecule?
A: inactive

Q: What about the inhibition [7] of the same molecule?
A: inactive

Q: What about the inhibition [8] of the same molecule?
A: inactive

Q: And the Activity [9]?
A: Active

Q: And the inhibition [10]?
A: inactive

Q: And the half-life [11]?
A: 3.07 h

Q: What about the AUC [12] of the same molecule?
A: 525.5 ng·h/mL

Q: And the inhibition [13]?
A: Active

Q: What about the inhibition [14] of the same molecule?
A: Active

Q: And the Activity [15]?
A: Active

Q: What about the inhibition [16] of the same molecule?
A: inactive

Q: And the inhibition [17]?
A: Dose-Dependent Effect

Q: What about the inhibition [18] of the same molecule?
A: Active

Q: And the Activity [19]?
A: inactive

Q: And the inhibition [20]?
A: 64.3%

Q: What about the inhibition [21] of the same molecule?
A: inactive

Q: And the inhibition [22]?
A: inactive

Q: And the inhibition [23]?
A: Active

Q: And the inhibition [24]?
A: Active

Q: What about the Cmax [25] of the same molecule?
A: 279 ng/mL

Q: And the Activity [26]?
A: Active

Q: What about the inhibition [27] of the same molecule?
A: Active
